Here are results for six compounds from patent US8461205B2, “Anthranilic acid derivatives” (Chelsea Therapeutics, Inc., priority 2007, dated 2013).

Molecules are shown by their SMILES.

The test system of one series is cell proliferation. As to conditions: effect stated to be unrelated to DHODH inhibition; cited from earlier work.
Another series deals with DHODH (Homo sapiens, UniProt Q02127). Description: DHODH inhibition. Type of series: biochemical.
Series [1] relates to human T lymphoblast cell line (Jurkat). Description: Inhibition of T-cell proliferation (Jurkat, 3H-TdR incorporation). Type of series: cell-based. The settings on record: for IC50: Homo sapiens, Jurkat cells, 3 days culture, 3H-TdR pulse last 4 hours. The procedure:
Inhibition of T cell proliferation was studied in a functional assay. A human T lymphoblast cell line (Jurkat) was cultured in the presence and absence, respectively, of DHODH inhibiting compounds. Jurkat cells were seeded in microtiterplates at a concentration of 5×10^5/mL in RPMI 1640 growth media supplemented with ultraglutamin, 10% fetal calf serum, 1 mM sodium pyruvat, 10 mM HEPES and 0.1 mg/mL gentamycin. A dilution series of ten different concentrations of inhibitor was added to the wells and the plates were kept in a cell incubator for 3 days. At the beginning of the last 4 hours period, the cultures were pulsed with 10 μl/well 0.1 Ci/mmol 3H-TdR and then harvested on filter papers and counted with a ([…]. The IC50 values for each compound were calculated from the obtained dose response curves. Adding uridine to a concentration of about 50 μM in the wells monitored the specificity for the mechanism i.e., the inhibition of cell proliferation is due to DHODH inhibition and not to a general cell toxicity of the compounds. This addition of uridine reverses the anti-proliferative effect by bypassing the DHODH enzyme using an external source of pyrimidine. Results in respect of a number of compounds of the invention are reported as Jurkat IC50 (in μM) in Table 1.
(§1) The inhibition of T cell proliferation was studied in a human T lymphoblast cell line (Jurkat). The IC50 value for each compound was calculated from the dose response curve. Adding uridine was used to monitor the specificity of the DHODH mechanism. The metabolic stability was studied in human liver microsomes. Table 1 exemplifies the invention, without limiting the scope thereof.

Series [2] can be described thus: Metabolic stability in human liver microsomes. Type of series: in vitro ADME. As to conditions: for half-life at 0.5 μM: human liver microsomes, 0.5 μM compound, 1 mg/mL protein, 1 mM NADPH, pH 7.4, 37° C., "stable" = no degradation could be confirmed. The procedure: The metabolic stability of the test compounds was determined using human liver microsomes. Incubations were performed with a compound concentration of 0.5 μM and a protein concentration of 1 mg/mL in 50 mM sodium phosphate buffer at physiological pH (7.4) and temperature (37° C.). The incubation mixture was preincubated at 37° C. prior to addition of NADPH (1 mM, final concentration). At several time points during 60 minutes, aliquots were removed and added to a 96 well plate placed on dry ice and deep-frozen. Samples were analyzed with LC-MS for concentration of parent compound. From the slope of the log [parent compound] vs. incubation time regression line, the in vitro half-life […] was determined. The intrinsic clearance (CLint) can be calculated using a modified Michaelis-Menten relationship, i.e., CLint=ln 2/t1/2. The CLint can then be converted to CL by using the well-stirred model of hepatic extraction. A value of 1.24 L/h/kg of the hepatic blood flow in man can be used. Results with respect to a number of compounds of the invention are reported as t1/2 (in minutes) in Table 1.
as §1

Chain of DHODH (Q02127 whole entry, species assumed): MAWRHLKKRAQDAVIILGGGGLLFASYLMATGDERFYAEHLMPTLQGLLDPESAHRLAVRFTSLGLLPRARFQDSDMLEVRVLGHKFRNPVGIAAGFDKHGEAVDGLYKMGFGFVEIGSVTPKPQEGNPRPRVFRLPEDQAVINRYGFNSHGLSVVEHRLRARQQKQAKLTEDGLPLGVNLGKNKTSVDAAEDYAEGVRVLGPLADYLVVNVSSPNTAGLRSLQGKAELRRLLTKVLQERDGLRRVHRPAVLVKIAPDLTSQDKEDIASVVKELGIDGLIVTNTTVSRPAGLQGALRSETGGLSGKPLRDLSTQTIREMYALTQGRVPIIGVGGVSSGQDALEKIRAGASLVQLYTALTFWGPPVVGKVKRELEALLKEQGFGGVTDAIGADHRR

For the compound `COC(=O)c1cc(OCc2cc(OC)ccc2OC)ccc1NC(C)=O` [2-acetylamino-5-(2,5-dimethoxy-benzyloxy)-benzoic acid methyl ester], in the series with cell proliferation, the “inhibition of cell proliferation (in words)” value is “inhibits cell proliferation”.
With `COc1ccc(OC)c(COc2ccc(O)c(C(=O)O)c2)c1` [5-(2,5-dimethoxy-benzyloxy)-2-hydroxy-benzoic acid], at DHODH, the “activity as DHODH inhibitor (in words)” value is “inactive”.
A word on the IC50: it is the point on the concentration scale where inhibition reaches its midpoint. By half-life is commonly meant how long it takes for the measured level to halve. Take `CCC(=O)Nc1ccc(OCc2ccc(Cl)cc2C(F)(F)F)cc1C(=O)O` [INV 29, 5-(4-Chloro-2-trifluoromethyl-benzyloxy)-2-propionylamino-benzoic acid]: in series [1], half-maximal inhibition (IC50) was put at 570 nM. In series [2], the half-life at 0.5 μM is 1.83 h.
The corresponding values for `CCC(=O)Nc1ccc(OCc2ccc(C(F)(F)F)cc2Br)cc1C(=O)O` [INV 30, 5-(2-Bromo-4-trifluoromethyl-benzyloxy)-2-propionylamino-benzoic acid] are 590 nM and 3.18 h.
`O=C(O)c1cc(OCc2ccc(Br)cc2C(F)(F)F)ccc1NC(=O)C1CC1` [INV 31, 5-(4-Bromo-2-trifluoromethyl-benzyloxy)-2-(cyclopropanecarbonyl-amino)-benzoic acid]: in series [1], the 50% inhibitory concentration (IC50) came to 420 nM. Also, in series [2], the half-life at 0.5 μM amounted to 3.87 h.
In series [1], `COc1ccc(OC)c(COc2ccc(NC(C)=O)c(C(=O)O)c2)c1` [REF 8, 2-acetylamino-5-(2,5-dimethoxy-benzyloxy)-benzoic acid, reference compound] displayed an IC50 of 6200 nM. In series [1] (Jurkat, cf. Table 1), the “inhibitory effect on T-cell proliferation (in words)” value is recorded as “only a weak inhibitory effect”. Besides, the “oxidation half-life / stability towards oxidation by human P450 (in words)” value in series [2] (human in vitro system, cf. Table 1) is on record as “short half-life”.
